Assay results taken from publication doi:10.1101/2020.02.20.957365v1, “Tree bark scrape fungus: A potential source of laccase for application in bioremediation of non-textile dyes” (biorxiv, 2020).

Test system: T1, laccase of Aspergillus sp. HB_RZ4
T1 construct: native extracellular enzyme purified from culture supernatant (ammonium sulfate, DEAE-cellulose, Sephadex G-100); about 62 kDa by SDS-PAGE
Assay: ABTS oxidation at […] nm, Michaelis-Menten and Lineweaver-Burk
Assay type: biochemical
Conditions: apparent Km; ABTS 10-200 mM; assay buffer 100 mM sodium acetate pH 4.0; free enzyme

CCn1c(=NN=c2sc3cc(S(=O)(=O)O)ccc3n2CC)sc2cc(S(=O)(=O)O)ccc21 [ABTS, 2,2’-azino-bis (3-ethylbenzothiazoline 6-sulphonic acid)]
Km: 26.8 mM
